What was measured:
poly(dGdC) = assay: ethidium displacement assay, poly(dGdC); type: binding; settings: poly(dGdC); ± 0.02 × 10^5 M^-1; pH 7.4
Excerpt: (§1) The ethidium displacement assay is based on the fact that ethidium binding to DNA causes a large (approximately 25 fold) florescence enhancement as a result of the hydrophobic environment surrounding the ethidium molecule. Displacement of ethidium results in decreased fluorescence, and thus binding constants of drugs to DNA can be estimated and compared by measuring the loss of fluorescence as a function of added drug. The drug concentration which produces 50% inhibition of florescence is approximately inversely proportional to the apparent binding constant.
(§2) The relative DNA binding constants (Kapp) of distamycin and Compounds 6-10 to calf thymus DNA, T4 coliphage DNA, poly(dAdT) and poly(dGdC) were determined using the ethidium displacement assay (Morgan et al., 1979). The Kapp of ethidium bromide (Debart et al., 1989) is included for comparison. 25 μL of a 2A260 DNA solution was added to 2 mL of ethidium bromide buffer (250 μL of 1.3 mM ethidium bromidestock, 314.9 mg Tris-HCl, 60.8 mg Tris base and 930/mg of Na2 EDTA.2H2 O in 250 ml H2 O) pH 7.4 and the maximum fluorescence was measured (excitation wavelength=546 nm, emission wavelength=600 nm) at ambient temperature.
(§3) DNA solutions of 2A260 were prepared as follows: T4 coliphage DNA: 10 units of DNA were dissolved in 1 mL of 10 mM sodium phosphate (pH 7.1) and 0.25 mM EDTA buffer to give a 10A260 solution. 0.3 mL of the stock solution were diluted to 1.5 mL with 10 mM sodium phosphate (pH 7.1) and 0.25 mM EDTA buffer to give a 2A260 solution. Calf thymus DNA: 100 units of DNA were dissolved in 5 mL of 10 mM sodium phosphate (pH 7.1) and 0.25 mM EDTA buffer to give a 20A260 solution. 1.5 mL of the stock solution were diluted to 15 mL with 10 mM sodium phosphate (pH 7.1) and 0.25 mM EDTA buffer to give a 2A260 solution. Poly(dA-dT) and Poly(dG-dC) DNA: 100 units of DNA were dissolved in 10 mL of 10 mM sodium phosphate pH 7.1) and 0.25 mM EDTA buffer to give a 10A260 solution. 3 mL of the stock solution were diluted to 15 mL with 10 mM sodium phosphate (pH 7.1) and 0.25 mM EDTA buffer to give a 2A260 solution.
(§4) Aliquots of 10 mM stock drug solution (1 mg of drug to be tested was dissolved with 1 mole equivalent of 0.1M HCl, and then diluted with appropriate volume of distilled water to make a 10 mM solution) were then added to the fluorescing solution and the florescence measured after each addition until a 50% reduction of fluorescence occurred. If the 10 mM stock solution lowered the % fluorescence too quickly, the stock solution was further diluted to 1 mM prior to titration. The apparent binding constant was then calculated from this equation: KEtBr [EtBr]=Kapp [drug], where [drug]=the concentration of drug at a 50% reduction of fluorescence and KEtBr [1×10^7 M^-1 for calf thymus and coliphage T4 DNA^18, 9.5×10^6 M^-1 for poly(dA.dT)^30, and 9.9×10^6 M^-1 for poly(dG.dC)^30 ] and [EtBr] were known. The concentration of ethidium bromide was 1.3 μM. The Kapp values are shown in Table I. In a separate experiment, the Kapp of Compound 5 for calf thymus DNA and poly[dGdC] were determined to be 0.3×10^5 M^-1 and 2.6×10^5 M^-1, respectively. The error in these measurements is ±[…].

HL-60 (TB) = assay: NCI cytotoxicity screen (SRB); type: cell-based, human
calf thymus DNA = assay: UV-dialysis study (covalent retention on DNA); type: binding; settings: 24 h incubation at room temperature; 20-26 hours dialysis; pH 7.1
Excerpt: The compounds of the present invention are useful as anticancer agents. Although the biological mechanism which results in anticancer activity is not fully understood, the compounds of the subject invention are capable of binding to the minor groove of double-stranded DNA and, unlike distamycin and netropsin, can tolerate GC-containing DNA. Accordingly, the DNA alkylating moiety of the compounds of the present invention can be directed to the minor groove of GC-containing regions of double-stranded DNA. One of ordinary skill in the art can determine the DNA alkylating ability of the compounds of the present invention by art-recognized methods. The formation of an irreversible adduct of DNA and a compound of the present invention is defined herein as a measure of the DNA alkylating ability of the subject compounds. The formation of an irreversible adduct can be determined by art-recognized methods. For example, a solution containing DNA and a compound of the present invention can be exhaustively dialyzed under conditions which allow unbound drug to pass out of the dialysis bag. The percentage of the compound which has been retained in the dialysis bag is considered to be covalently bound to the DNA, and is determined by comparing the UV absorption spectrum of the compound/DNA solution before and after exhaustive dialysis.
0.5 mL of 2A260 calf thymus DNA was diluted to 2 mL with 10 mM sodium phosphate and 0.25 mM EDTA buffer, pH 7.1. Four aliquots (3 μL each) of a 1 mM stock drug solution in distilled water were added to the DNA solution and a UV absorption spectrum (300-320) was recorded after each addition. The drug/DNA solution was incubated for 24 h at room temperature and another UV spectrum was recorded. The drug/DNA solution was then transferred into a dialysis bag and the dialysis bag was suspended in 30 mL of 10 mM sodium phosphate and 0.25 mM EDTA buffer, pH, 7.1, at room temperature. After 20-26 hours, the […] spectrum of 2 mL of the buffer outside the dialysis bag was recorded. The absorbance of the drug peak was converted to concentration by the Beer-Lambert equation, and the data was presented as percent initial concentration. Under these conditions, substantial amounts of Compounds 6 (55±5%), 7 (45±5%), 8 (85±5%) and 10 (100±5%) are retained in the dialysis bag, while only 29±5% of a formamido analog^1 is retained.

poly(dAdT) = assay: ethidium displacement assay, poly(dAdT); type: binding; settings: ± 0.02 × 10^5 M^-1, pH 7.4
Excerpt: as §1, §2, §3, §4

Structure (SMILES) | Association constant Kapp (poly(dGdC)) [M⁻¹] | IC50 (HL-60 (TB); 48 h, Leukemia HL-60 (TB)) [µM] | IC50 (HL-60 (TB); HL-60 (TB), subsequent test date) [µM] | retained in the dialysis bag (percent initial concentration) (calf thymus DNA) [%] | Association constant Kapp (poly(dAdT)) [M⁻¹]
CN(C)CCNC(=O)c1nc(NC(=O)c2nc(NC(=O)c3ccc(N(CCCl)CCCl)cc3)cn2C)cn1C [Compound 6, N-(N',N'-dimethylaminoethyl)-1-methyl-4-{4-[4,4-bis(2-chloroethyl)aminobenzamido]-1-methylimidazole-2-carboxamido}imidazole-2-carboxamide] | 455000 | 7.84 | 7.93 | 55±5 | 475000
CN(C)CCNC(=O)c1nc(NC(=O)c2nc(NC(=O)c3nc(NC(=O)c4ccc(N(CCCl)CCCl)cc4)cn3C)cn2C)cn1C [Compound 7, N-(N',N'-dimethylaminoethyl)-1-methyl-4-{1-methyl-4-[4-(4,4-bis-(2-chloroethyl)aminobenzamido)-1-methylimidazole-2-carboxamido]imidazole-2-carboxamido}imidazole-2-carboxamide] | 495000 | 0.72 |  | 45±5 | 950000
CN(C)CCNC(=O)c1nc(NC(=O)c2nc(NC(=O)c3nc(NCc4ccc(N(CCCl)CCCl)cc4)cn3C)cn2C)cn1C [Compound 8, N-(N',N'-dimethylaminoethyl)-1-methyl-4-{1-methyl-4-[4-(4,4-bis-(2-chloroethyl)aminobenzylamino)-1-methylimidazole-2-carboxamido]imidazole-2-carboxamido}imidazole-2-carboxamide] | 339000 |  |  | 85±5 | 457000
CN(C)CCNC(=O)c1nc(NC(=O)c2nc(NC(=O)CCCc3ccc(N(CCCl)CCCl)cc3)cn2C)cn1C [Compound 9, N-(N',N'-dimethylaminoethyl)-1-methyl-4-{4-[4,4-bis(2-chloroethyl)aminophenyl-1-butanamido]-1-methylimidazole-2-carboxamido}imidazole-2-carboxamide] | 76000 | 43.8 |  |  | 54000
CN(C)CCNC(=O)c1nc(NC(=O)c2nc(NC(=O)c3nc(NC(=O)CCCc4ccc(N(CCCl)CCCl)cc4)cn3C)cn2C)cn1C [Compound 10, N-(N',N'-dimethylaminoethyl)-1-methyl-4-{1-methyl-4-[4-(4,4-bis(2-chloroethyl)aminophenyl-1-butanamido)-1-methylimidazole-2-carboxamido]imidazole-2-carboxamido}imidazole-2-carboxamide] | 16000 | 7.89 |  | 100±5 | 13000

Source: US5273991A, “Imidazole-containing compositions and methods of use thereof analogs of distamycin” (Research Corporation Technologies, Inc., priority 1992, dated 1993)
